Test results published in US20040076974A1, “Liver necrosis predictive genes” (priority 2002, published 2004).
Like-named read-outs stand apart in the source and are kept apart here.

Tested on: Sprague Dawley rats
Procedure: Sprague Dawley rats Crl:CD from Charles River, Raleigh, N.C. were divided into treated rats that receive a specific concentration of the compound (see Table 1) and. control rats that only received the vehicle in which the compound is mixed (e.g., saline).
At specified timepoints (6 h, 24 h and 72 h) after administration (intraperitoneal route) of the compound, a set number of rats (usually 3 control and 3 treated) were euthanized and tissues collected. Each, rat was heavily sedated with an overdose of CO2 by inhalation and a maximum amount of blood drawn. Exsanguination of the rat by this drawing of blood kills the rat. The method of collecting the tissues is very important and ensures preserving the quality of the mRNA in the tissues. The body of the rat was then opened up and prosectors rapidly removed the tissues (including) and immediately placed them into liquid nitrogen. […] The organs/tissues were then packaged into well-labeled plastic freezer quality bags and stored at −80 degrees until needed for isolation of the mRNA from a portion of the organ/tissue sample.
Histopathology scores for each animal (assigned on a compound-dose basis as indicated in Table 1) were entered with gene expression data by using the GeneSpring™ ‘Drawn Gene’ function. Correlations between the histopathology scores and gene expression were conducted with the distance measures listed below:
Toxicity classifications were entered for training and test set as a parameter column. Toxicity, as defined by observation of necrosis in the at 72 hours after treatment, was entered as a “yes” or “no” for each animal in a compound-dose group. Additionally, a parameter column for random histopathology classification was designated. This was done by randomly assigning the same number of “yes” and “no” calls to the individual animals.

[1] = Sprague Dawley, rat, in vivo, ip, 50 mg/kg, 72 h
[2] = Sprague Dawley, rat, in vivo, ip, 200 mg/kg, 72 h

## lipopolysaccharide
72 h, dose 8
  Liver Toxicity Necrosis Classification: yes
72 h; dose 2
  Liver Toxicity Necrosis Classification: no
compound-dose group at 72 h, dose 2
  Liver Toxicity Necrosis Classification: no
compound-dose group at 72 h, dose 8
  Liver Toxicity Necrosis Classification: yes
compound-dose group at 72 h; CCL4 1000, DMN 20, LPS 8
  Liver Toxicity Necrosis Classification: yes
compound-dose group at 72 h; dose 2
  Liver Toxicity Necrosis Classification: no
compound-dosegroup at 72 h; dose 2
  Liver Toxicity Necrosis Classification: no
compound-dosegroup at 72 h; dose 8
  Liver Toxicity Necrosis Classification: yes
rat, high dose of Table 1, liver necrosis at 72 hours
  toxicity at the high dose: produced toxicity
rat, intraperitoneal, dose 2 mg/kg, 72 hours after treatment
  Liver Necrosis: no
rat, intraperitoneal, dose 2 mg/kg, 72 hours; 1 = not remarkable, 2 and higher increasing severity
  Score (histopathology liver necrosis severity score): 1
rat, intraperitoneal, dose 8 mg/kg, 72 hours after treatment
  Liver Necrosis: Yes
rat, intraperitoneal, dose 8 mg/kg, 72 hours; 1 = not remarkable, 2 and higher increasing severity
  Score (histopathology liver necrosis severity score): 6
rat, low dose of Table 1, liver necrosis at 72 hours
  toxicity at the low dose: not at the low dose

## CN1CCN(C2=Nc3cc(Cl)ccc3Nc3ccccc32)CC1 [clozapine]
Sprague Dawley, rat, in vivo, ip, 45 mg/kg, 72 h
  Score (histopathology liver necrosis severity score): 1
Sprague Dawley, rat, in vivo, ip, 180 mg/kg, 72 h
  Score (histopathology liver necrosis severity score): 1
rat, in vivo
  Liver Toxicity Necrosis Classification: no
rat, in vivo, ip, 45 mg/kg
  Liver Necrosis: no
rat, in vivo, ip, 180 mg/kg
  Liver Necrosis: no

## COc1ccc(C[C@H](N)C(=O)N[C@H]2[C@@H](O)[C@H](n3cnc4c(N(C)C)ncnc43)O[C@@H]2CO)cc1 [puromycin]
Sprague Dawley, rat, in vivo, ip, 38 mg/kg, 72 h
  Score (histopathology liver necrosis severity score): 1
Sprague Dawley, rat, in vivo, ip, 150 mg/kg, 72 h
  Score (histopathology liver necrosis severity score): 1
rat, in vivo
  Liver Toxicity Necrosis Classification: no
rat, in vivo, ip, 38 mg/kg
  Liver Necrosis: no
rat, in vivo, ip, 150 mg/kg
  Liver Necrosis: no

## O=C(O)c1cc(-c2ccc(F)cc2F)ccc1O [diflunisal]
Sprague Dawley, rat, in vivo, ip, 25 mg/kg, 72 h
  Score (histopathology liver necrosis severity score): 1
Sprague Dawley, rat, in vivo, ip, 100 mg/kg, 72 h
  Score (histopathology liver necrosis severity score): 1
rat, in vivo
  Liver Toxicity Necrosis Classification: no
rat, in vivo, ip, 25 mg/kg
  Liver Necrosis: no
rat, in vivo, ip, 100 mg/kg
  Liver Necrosis: no

## O=c1[nH]cc(F)c(=O)[nH]1 [5-fluorouracil]
Sprague Dawley, rat, in vivo, ip, 13 mg/kg, 72 h
  Score (histopathology liver necrosis severity score): 1
[1]
  Score (histopathology liver necrosis severity score): 1
rat, in vivo
  Liver Toxicity Necrosis Classification: no
rat, in vivo, ip, 13 mg/kg
  Liver Necrosis: no
rat, in vivo, ip, 50 mg/kg
  Liver Necrosis: no

## aflatoxin B1
rat, in vivo, ip, 1 mg/kg
  Liver Necrosis: Yes
  Score (histopathology liver necrosis severity score): 8

## c1ccccc1 [benzene]
rat, in vivo
  Liver Toxicity Necrosis Classification: no
rat, in vivo, ip
  Liver Necrosis: No
  Score (histopathology liver necrosis severity score): 1

## CN(C)CCCN1c2ccccc2Sc2ccc(Cl)cc21 [chlorpromazine]
Sprague Dawley, rat, in vivo, ip, 8 mg/kg, 72 h
  Score (histopathology liver necrosis severity score): 1
Sprague Dawley, rat, in vivo, ip, 30 mg/kg, 72 h
  Score (histopathology liver necrosis severity score): 1
rat, in vivo
  Liver Toxicity Necrosis Classification: no
rat, in vivo, ip, 8 mg/kg
  Liver Necrosis: no
rat, in vivo, ip, 30 mg/kg
  Liver Necrosis: no

## COc1cccc2c1C(=O)c1c(O)c3c(c(O)c1C2=O)C[C@@](O)(C(=O)CO)C[C@@H]3O[C@H]1C[C@H](N)[C@H](O)[C@H](C)O1 [doxorubicin]
Sprague Dawley, rat, in vivo, ip, 12 mg/kg, 72 h
  Score (histopathology liver necrosis severity score): 1
rat, in vivo
  Liver Toxicity Necrosis Classification: no
rat, in vivo, ip, 12 mg/kg
  Liver Necrosis: no

## C[C@]12CC[C@@H]3c4ccc(O)cc4CC[C@H]3[C@@H]1CC[C@@H]2O [estradiol]
Sprague Dawley, rat, in vivo, ip, 0.1 mg/kg, 72 h
  Score (histopathology liver necrosis severity score): 1
Sprague Dawley, rat, in vivo, ip, 0.4 mg/kg, 72 h
  Score (histopathology liver necrosis severity score): 1
rat, in vivo
  Liver Toxicity Necrosis Classification: no
rat, in vivo, ip, 0.1 mg/kg
  Liver Necrosis: no
rat, in vivo, ip, 0.4 mg/kg
  Liver Necrosis: no

## carboxy methyl cellulose
rat, in vivo, ip, 30 mg/kg
  Liver Necrosis: no
  Score (histopathology liver necrosis severity score): 1

## ClC(Cl)Cl [chloroform]
rat, in vivo
  Liver Toxicity Necrosis Classification: no
rat, in vivo, ip
  Liver Necrosis: no
  Score (histopathology liver necrosis severity score): 1

## gentamicin
At 72 h; dose 38
  Liver Toxicity Necrosis Classification: no
At 72 h; dose 150
  Liver Toxicity Necrosis Classification: no
compound-dose group at 72 h, dose 38
  Liver Toxicity Necrosis Classification: no
compound-dose group at 72 h, dose 150
  Liver Toxicity Necrosis Classification: no
compound-dose group at 72 h; dose 38
  Liver Toxicity Necrosis Classification: no
compound-dose group at 72 h; dose 150
  Liver Toxicity Necrosis Classification: no
compound-dosegroup at 72 h; dose 38
  Liver Toxicity Necrosis Classification: no
rat, intraperitoneal, dose 38 mg/kg, 72 hours after treatment
  Liver Necrosis: no
rat, intraperitoneal, dose 38 mg/kg, 72 hours; 1 = not remarkable, 2 and higher increasing severity
  Score (histopathology liver necrosis severity score): 1
rat, intraperitoneal, dose 150 mg/kg, 72 hours after treatment
  Liver Necrosis: no
rat, intraperitoneal, dose 150 mg/kg, 72 hours; 1 = not remarkable, 2 and higher increasing severity
  Score (histopathology liver necrosis severity score): 1

## CN(Cc1cnc2nc(N)nc(N)c2n1)c1ccc(C(=O)N[C@@H](CCC(=O)O)C(=O)O)cc1 [methotrexate]
Sprague Dawley, rat, in vivo, ip, 5 mg/kg, 72 h
  Score (histopathology liver necrosis severity score): 1
rat, in vivo
  Liver Toxicity Necrosis Classification: no
rat, in vivo, ip, 5 mg/kg
  Liver Necrosis: no

## CCC(=O)O[C@H]1[C@H](O[C@@H]2[C@@H](C)[C@H](O[C@H]3C[C@@](C)(OC)[C@@H](O)[C@H](C)O3)[C@@H](C)C(=O)O[C@H](CC)[C@@](C)(O)[C@H](O)[C@@H](C)C(=O)[C@H](C)C[C@@]2(C)O)O[C@H](C)C[C@@H]1N(C)C [erythromycin estolate]
72 h, dose 40
  Liver Toxicity Necrosis Classification: no
compound-dose group at 72 h; dose 40
  Liver Toxicity Necrosis Classification: no
compound-dose group at 72 h; dose 160
  Liver Toxicity Necrosis Classification: no
Dose 40, 72 h
  Liver Toxicity Necrosis Classification: no
Dose 160, 72 h
  Liver Toxicity Necrosis Classification: no
rat, intraperitoneal, dose 40 mg/kg, 72 hours after treatment
  Liver Necrosis: no
rat, intraperitoneal, dose 40 mg/kg, 72 hours; 1 = not remarkable, 2 and higher increasing severity
  Score (histopathology liver necrosis severity score): 1
rat, intraperitoneal, dose 160 mg/kg, 72 hours after treatment
  Liver Necrosis: no
rat, intraperitoneal, dose 160 mg/kg, 72 hours; 1 = not remarkable, 2 and higher increasing severity
  Score (histopathology liver necrosis severity score): 1

## C=CCN1CC[C@]23c4c5ccc(O)c4O[C@H]2C(=O)CC[C@@]3(O)[C@H]1C5 [naloxone]
rat, in vivo
  Liver Toxicity Necrosis Classification: no
rat, in vivo, ip
  Score (histopathology liver necrosis severity score): 1
rat, intraperitoneal, dose 180 mg/kg, 72 hours after treatment
  Liver Necrosis: no
rat, intraperitoneal, dose 180 mg/kg, 72 hours; 1 = not remarkable, 2 and higher increasing severity
  Score (histopathology liver necrosis severity score): 1
rat, intraperitoneal, dose 45 ml/kg, 72 hours after treatment
  Liver Necrosis: no

## NC(=O)NO [hydroxyurea]
Sprague Dawley, rat, in vivo, ip, 250 mg/kg, 72 h
  Score (histopathology liver necrosis severity score): 1
Sprague Dawley, rat, in vivo, ip, 1000 mg/kg, 72 h
  Score (histopathology liver necrosis severity score): 1
rat, in vivo
  Liver Toxicity Necrosis Classification: no
rat, in vivo, ip, 250 mg/kg
  Liver Necrosis: no
rat, in vivo, ip, 1000 mg/kg
  Liver Necrosis: no

## NNC(=O)c1ccncc1 [isoniazid]
[1]
  Score (histopathology liver necrosis severity score): 1
[2]
  Score (histopathology liver necrosis severity score): 1
rat, in vivo
  Liver Toxicity Necrosis Classification: no
rat, in vivo, ip, 50 mg/kg
  Liver Necrosis: no
rat, in vivo, ip, 200 mg/kg
  Liver Necrosis: no

## c1ccc2c(c1)cc1ccc3cccc4ccc2c1c34 [benzo[a]pyrene]
compound-dose group at 72 h; dose 30
  Liver Toxicity Necrosis Classification: no
rat, intraperitoneal, dose 30 mg/kg, 72 hours after treatment
  Liver Necrosis: No
rat, intraperitoneal, dose 30 mg/kg, 72 hours; 1 = not remarkable, 2 and higher increasing severity
  Score (histopathology liver necrosis severity score): 1

## C=C[C@H]1C[N@@]2CC[C@H]1C[C@@H]2[C@@H](O)c1ccnc2ccc(OC)cc12 [quinidine]
rat, intraperitoneal, dose 25 mg/kg, 72 hours after treatment
  Liver Necrosis: no
rat, intraperitoneal, dose 25 mg/kg, 72 hours; 1 = not remarkable, 2 and higher increasing severity
  Score (histopathology liver necrosis severity score): 1
rat, intraperitoneal, dose 100 mg/kg, 72 hours after treatment
  Liver Necrosis: no
rat, intraperitoneal, dose 100 mg/kg, 72 hours; 1 = not remarkable, 2 and higher increasing severity
  Score (histopathology liver necrosis severity score): 1

## CS(=O)(=O)OCCCCOS(C)(=O)=O [busulfan]
Sprague Dawley, rat, in vivo, ip, 14 mg/kg, 72 h
  Score (histopathology liver necrosis severity score): 1
rat, in vivo
  Liver Toxicity Necrosis Classification: no
rat, in vivo, ip, 14 mg/kg
  Liver Necrosis: no

## Nc1nc(O)c2ncn(COC(CO)CO)c2n1 [gancyclovir]
[1]
  Score (histopathology liver necrosis severity score): 1
[2]
  Score (histopathology liver necrosis severity score): 1
rat, in vivo
  Liver Toxicity Necrosis Classification: no
rat, in vivo, ip, 50 mg/kg
  Liver Necrosis: no
rat, in vivo, ip, 200 mg/kg
  Liver Necrosis: no
